Reference: US8152784B2, “Method for treating or preventing steroid-induced glaucoma” (Wisconsin Alumni Research Foundation, priority 2005, dated 2012)

Tests used:
[1] = system: trabecular meshwork cells; test: CLAN formation in trabecular meshwork cells on fibronectin-coated cover slips with Src kinase inhibitor; assay type: cell-based, human; details: PP2 20 μM
Experimental: (§1) Cultured, diploid human trabecular meshwork cells obtained from trabecular meshwork explants were plated on coverslips coated with extracellular matrix materials, including poly-L-lysine (20 nM in PBS), fibronectin (100 nM in PBS), type I collagen (20 nM in PBS), type IV collagen (20 nM in PBS), vitronectin (20 nM in PBS), vascular cell adhesion molecule (VCAM-1, an α4β1 ligand; 20 nM in PBS), fibronectin III7-10 domain (an α5β1 ligand; 20 nM in PBS), fibronectin III12-14 domain (20 nM in PBS), or fibronectin IICS domains (20 nM in PBS), or activating antibodies to β1 (anti-B3B11; Chemicon Int'l, Inc.; Temecula, Calif.; 10 μg/ml), β3 (anti-AP-5; The Blood Center of Southeastern Wisconsin; Milwaukee, Wis.; 8 μg/ml), or α2β1 (anti-JBS2; Chemicon Int'l, Inc.; 6 μg/ml) integrins. In experiments using antibodies as substrates, coverslips were pre-coated with 1:100 unconjugated goat anti-mouse IgG (Jackson Immunoresearch, Inc.; West Grove, Pa.). In some instances, anti-β3 antibodies were used as soluble ligands. […]
CLAN formation was assessed by immunofluorescence microscopy. […] Anti-F-actin was detected using either Alexa 488 conjugated goat anti-rabbit IgG or Alexa 488 conjugated donkey anti-rabbit IgG. All monoclonal antibodies were detected using Alexa 546 conjugated goat anti-mouse IgG. […]

[2] = system: human trabecular meshwork cells; test: CLAN formation in cultured human trabecular meshwork cells spread on coated coverslips, immunofluorescence microscopy; assay type: cell-based; details: adsorbed substrate on coverslip, cells spread three hours
Experimental: as §1
CLAN formation was assessed by immunofluorescence microscopy. […] Anti-F-actin was detected using either Alexa 488 conjugated goat anti-rabbit IgG or Alexa 488 conjugated donkey anti-rabbit IgG. All monoclonal antibodies were detected using Alexa 546 conjugated goat anti-mouse IgG.

Row | Compound | CLAN formation, % of cells ([1]; absence of soluble anti-β3, control cells 10%) [%] | CLAN formation, % of cells ([1]; presence of soluble anti-β3, control cells 30%) [%] | CLAN formation, % of the cells [2] [%]
1 | CC(C)(C)n1nc(-c2ccc(Cl)cc2)c2c(N)ncnc21 [PP2] | 0 | 1 | –
2 | fibronectin | – | – | 13
